BindingDB's records for doi:10.1016/j.bmc.2006.10.040 (University of Camerino, 2007)

Legend:
[1] = biological target: T1, Muscarinic acetylcholine receptor M5 (Homo sapiens, UniProt P08912); assay: Agonist activity at human muscarinic M5 receptor expressed in CHO cells
T1 sequence (P08912 whole entry): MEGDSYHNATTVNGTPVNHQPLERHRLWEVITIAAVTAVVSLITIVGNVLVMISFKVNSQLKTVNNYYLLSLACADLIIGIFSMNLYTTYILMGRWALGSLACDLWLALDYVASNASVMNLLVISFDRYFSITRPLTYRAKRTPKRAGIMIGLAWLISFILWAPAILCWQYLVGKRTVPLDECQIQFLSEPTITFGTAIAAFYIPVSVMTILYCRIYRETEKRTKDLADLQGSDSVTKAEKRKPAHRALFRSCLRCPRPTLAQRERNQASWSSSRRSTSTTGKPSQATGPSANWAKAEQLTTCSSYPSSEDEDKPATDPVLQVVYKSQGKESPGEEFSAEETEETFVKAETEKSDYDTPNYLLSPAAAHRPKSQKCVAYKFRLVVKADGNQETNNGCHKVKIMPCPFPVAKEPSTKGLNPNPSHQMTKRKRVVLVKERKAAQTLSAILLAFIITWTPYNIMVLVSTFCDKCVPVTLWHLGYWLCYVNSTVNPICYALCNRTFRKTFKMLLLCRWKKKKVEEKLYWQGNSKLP

[2] = biological target: T2, Muscarinic acetylcholine receptor M2 (Homo sapiens, UniProt P08172); assay: Agonist activity at human muscarinic M2 receptor expressed in CHO cells
T2 sequence (P08172 whole entry): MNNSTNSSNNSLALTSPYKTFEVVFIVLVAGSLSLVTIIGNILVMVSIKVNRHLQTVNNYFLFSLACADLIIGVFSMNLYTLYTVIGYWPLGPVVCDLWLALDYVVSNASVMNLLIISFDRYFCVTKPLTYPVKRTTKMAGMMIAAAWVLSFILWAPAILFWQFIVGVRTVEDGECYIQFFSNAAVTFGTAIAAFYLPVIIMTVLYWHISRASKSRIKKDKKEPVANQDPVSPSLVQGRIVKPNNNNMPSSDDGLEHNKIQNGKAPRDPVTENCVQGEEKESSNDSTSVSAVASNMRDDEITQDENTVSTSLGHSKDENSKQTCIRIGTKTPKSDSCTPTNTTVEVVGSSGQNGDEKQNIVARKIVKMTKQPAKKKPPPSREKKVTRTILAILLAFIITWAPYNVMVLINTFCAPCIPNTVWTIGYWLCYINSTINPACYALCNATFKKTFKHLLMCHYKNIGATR

Row | SMILES | EC50 [1] [µM] | EC50 [2] [µM]
1 | CC1COCC(C[N+](C)(C)C)O1 (centres undefined) | 7.94 | 
2 | C[C@@H]1COC[C@H](C[N+](C)(C)C)O1 |  | 15.4
3 | C[C@H]1COC[C@@H](C[N+](C)(C)C)O1 | 3.71 | 37.1
